Test results: patent US20250032458A1, “TREATMENT OF CANCER WITH AN FGFR KINASE INHIBITOR” (Kinnate Biopharma Inc., priority 2021, published 2025)
pEC50: −log10 of the molar value. Read-outs that look alike come from different tables or passages of the source.

What was measured:
SNU-16 cells = assay: Cell proliferation, 5-day CellTiter-Glo; type: cell-based; conditions: Homo sapiens, 120 h; SNU-16, 5 days; read-out: 5-Day CTG EC50
LOK (AKA STK10) = LOK (AKA STK10) (Homo sapiens, UniProt O94804); assay: Kinome selectivity screen by mobility shift assay (321 kinases); conditions: read-out: % Inhibition 1 μM
Chain of LOK (AKA STK10) (O94804 whole entry): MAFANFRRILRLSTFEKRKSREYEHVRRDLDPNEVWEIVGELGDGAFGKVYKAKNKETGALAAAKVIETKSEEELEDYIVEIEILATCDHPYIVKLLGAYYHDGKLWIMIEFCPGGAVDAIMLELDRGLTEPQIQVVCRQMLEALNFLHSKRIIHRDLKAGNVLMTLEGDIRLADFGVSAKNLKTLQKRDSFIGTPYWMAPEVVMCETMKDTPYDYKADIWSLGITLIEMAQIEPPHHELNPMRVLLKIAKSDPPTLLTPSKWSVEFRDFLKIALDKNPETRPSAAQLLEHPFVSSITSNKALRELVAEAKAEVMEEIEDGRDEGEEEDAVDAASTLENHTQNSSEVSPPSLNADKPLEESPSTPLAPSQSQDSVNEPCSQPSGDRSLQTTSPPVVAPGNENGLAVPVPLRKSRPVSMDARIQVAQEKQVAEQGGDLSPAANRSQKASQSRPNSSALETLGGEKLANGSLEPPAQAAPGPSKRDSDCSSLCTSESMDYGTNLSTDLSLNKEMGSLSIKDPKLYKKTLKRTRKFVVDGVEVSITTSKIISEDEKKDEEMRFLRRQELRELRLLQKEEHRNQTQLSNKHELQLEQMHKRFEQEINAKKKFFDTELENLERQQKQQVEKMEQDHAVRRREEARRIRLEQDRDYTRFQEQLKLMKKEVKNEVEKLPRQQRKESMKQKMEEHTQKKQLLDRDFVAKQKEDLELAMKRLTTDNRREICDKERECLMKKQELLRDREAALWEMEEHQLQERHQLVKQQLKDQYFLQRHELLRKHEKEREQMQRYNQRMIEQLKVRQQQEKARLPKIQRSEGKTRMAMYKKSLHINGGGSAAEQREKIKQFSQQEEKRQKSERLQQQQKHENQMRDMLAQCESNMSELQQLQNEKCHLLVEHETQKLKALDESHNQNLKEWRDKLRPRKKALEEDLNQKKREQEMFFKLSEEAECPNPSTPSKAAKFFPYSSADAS

[1] = Exposure in mice bearing RT-112 xenografts; conditions: mouse, in vivo, PO QD 2-15 mg/kg, 24-hour period following the last dose
Experimental: (§1) Three animals in the 15 mg/kg cohort lost >10% of their body weight during the course of treatment but recovered by end of study.

[2] = system: human RT-112 urinary bladder transitional cell carcinoma xenograft (FGFR3-TACC3 fusion); conditions: for ΔT/ΔC / Final TV: 21 days; for Final TV: mean ± SEM
Text: (§2) Groups and treatments were started when the mean tumor volume reached approximately 200-250 mm^3. Mice were assigned to respective groups based on their starting tumor volume and body weight such that the average values for both parameters were balanced for each treatment group.

[3] = system: human SNU-16 gastric cancer xenograft (FGFR2 gene amplification); conditions: for ΔT/ΔC / Final TV: 21 days; for Final TV: mean ± SEM
Text: as §2

SW-780 cells = assay: Cell proliferation, 5-day CellTiter-Glo; type: cell-based; conditions: Homo sapiens, SW780, 120 h; SW-780, 5 days; read-out: 5-Day CTG EC50
[4] = system: endogenous FGFR in five human tumor cell lines; conditions: read-out: EC50 values, inhibition of endogenous FGFR
RT-4 cells = assay: Cell proliferation, 5-day CellTiter-Glo; type: cell-based; conditions: Homo sapiens, 120 h; RT-4, 5 days; read-out: 5-Day CTG EC50
[5] = Tolerability / body weight in RT-112 xenograft mice; type: in vivo; conditions: RT-112 model
Experimental: as §1

RT-112 cells = assay: Cell proliferation, 5-day CellTiter-Glo; type: cell-based; conditions: Homo sapiens, 120 h; RT-112, 5 days; read-out: 5-Day CTG EC50
TNK1 = molecular target: T1, TNK1 (Homo sapiens, UniProt Q13470); assay: Kinome selectivity screen by mobility shift assay (321 kinases); conditions: read-out: % Inhibition 1 μM
T1 sequence (Q13470 1-666): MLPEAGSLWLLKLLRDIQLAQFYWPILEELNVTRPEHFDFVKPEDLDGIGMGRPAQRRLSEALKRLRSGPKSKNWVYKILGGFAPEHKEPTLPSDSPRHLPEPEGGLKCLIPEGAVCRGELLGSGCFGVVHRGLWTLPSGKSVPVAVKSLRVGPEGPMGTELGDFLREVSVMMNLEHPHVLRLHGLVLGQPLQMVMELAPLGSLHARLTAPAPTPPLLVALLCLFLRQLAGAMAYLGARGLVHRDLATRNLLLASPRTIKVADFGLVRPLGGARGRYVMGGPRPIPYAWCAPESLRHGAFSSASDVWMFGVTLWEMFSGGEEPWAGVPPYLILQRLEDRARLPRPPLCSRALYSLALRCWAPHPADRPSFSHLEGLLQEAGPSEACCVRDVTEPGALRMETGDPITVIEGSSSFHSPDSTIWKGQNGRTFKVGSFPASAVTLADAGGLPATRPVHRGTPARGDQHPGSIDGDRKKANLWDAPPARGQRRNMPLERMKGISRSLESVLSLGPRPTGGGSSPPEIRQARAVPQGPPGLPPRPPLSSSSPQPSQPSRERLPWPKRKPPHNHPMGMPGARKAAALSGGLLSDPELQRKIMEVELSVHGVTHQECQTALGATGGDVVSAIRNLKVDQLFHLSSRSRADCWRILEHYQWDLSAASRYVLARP

KATO-III cells = assay: Cell proliferation, 5-day CellTiter-Glo; type: cell-based; conditions: Homo sapiens, 120 h, 5 days, read-out: 5-Day CTG EC50
panel of 321 kinases = assay: Kinome selectivity screen by mobility shift assay (whole panel); conditions: 1 μM
[6] = Exposure in mice bearing SNU-16 xenografts; conditions: mouse, in vivo, PO QD 2-15 mg/kg, 24-hour period following the last dose
[7] = Tolerability / body weight in SNU-16 xenograft mice; type: in vivo; conditions: SNU-16 model, all tested doses and schedules; lack of significant body weight changes
Text: […]. Treatment was initiated when tumor volumes were approximately 200-250 mm^3 (actual mean TV for all groups was 262 mm^3).

C=CC(=O)N1C[C@@H](n2nc(C#Cc3c(F)cc4c(ncn4C4CC4)c3F)c(C(N)=O)c2NC)C[C@@H]1COC [Compound 1, 1-((3S,5R)-1-acryloyl-5-(methoxymethyl)pyrrolidin-3-yl)-3-((1-cyclopropyl-4,6-difluoro-1H-benzo[d]imidazol-5-yl)ethynyl)-5-(methylamino)-1H-pyrazole-4-carboxamide]
pEC50 (SNU-16 cells): 8.41
inhibition at 1 µM (LOK (AKA STK10)): 64.6%
AUC(0-t) [1]: 1320 to 9760 ng·h/mL
ΔT/ΔC ([2]; RT-112, 2 mg/kg QD PO): 20%
Final TV ([2]; RT-112, 2 mg/kg QD PO): 446 ± 49 mm^3
animals exhibiting tumor regression ([2]; RT-112, 5 mg/kg QD): 4 of 9
ΔT/ΔC ([2]; RT-112, 5 mg/kg QD PO): 9%
Final TV ([2]; RT-112, 5 mg/kg QD PO): 343 ± 57 mm^3
animals exhibiting tumor regression ([2]; RT-112, 15 mg/kg QD): 4 of 9
ΔT/ΔC ([2]; RT-112, 15 mg/kg QD PO): 1%
Final TV ([2]; RT-112, 15 mg/kg QD PO): 274 ± 48 mm^3
ΔT/ΔC ([3]; SNU-16, 2 mg/kg QD PO): 31%
Final TV ([3]; SNU-16, 2 mg/kg QD PO): 497 ± 22 mm^3
ΔT/ΔC ([3]; SNU-16, 5 mg/kg QD PO): 19%
Final TV ([3]; SNU-16, 5 mg/kg QD PO): 410 ± 20 mm^3
ΔT/ΔC ([3]; SNU-16, 15 mg/kg QD PO): 7%
Final TV ([3]; SNU-16, 15 mg/kg QD PO): 313 ± 13 mm^3
animals with tumor regression ([3]; SNU-16, 15 mg/kg QD cohort): one
pEC50 (SW-780 cells): 8.38
pEC50 [4]: 8.22 to 9.00
pEC50 (RT-4 cells): 8.22
average weight loss ([5]; 15 mg/kg QD): 5.4%
animals that lost >10% of their body weight during treatment (recovered by end of study) ([5]; 15 mg/kg cohort (9 animals)): Three
tolerability ([5]; all of the tested doses (2, 5, 15 mg/kg QD)): well tolerated
pEC50 (RT-112 cells): 8.38
inhibition at 1 µM (TNK1): 89.5%
pEC50 (KATO-III cells): 8.28
number of non-FGFR kinases with >40% inhibition (panel of 321 kinases): 2
AUC(0-t) [6]: 1090 to 9760 ng·h/mL
tolerability [7]: well tolerated
